Assay results as given in patent US7049334B2, “Enhancement of learning and memory and treatment of amnesia” (priority 2001, dated 2006).

What was measured:
[1] = system: Schaffer collateral-CA1 pathway of rat hippocampal slices; assay: LTP induction in Schaffer collateral-CA1 pathway of hippocampal slices (fEPSP slope); assay type: cell-based, Wistar rats; conditions: fEPSP slope 60 min after weak tetanus (50 Hz, 0.5 s); 1.6 μM perfused 3 min before and 3 min after tetanus
rats (spatial memory) = assay: Morris water maze; assay type: in vivo; conditions: L-NAME intracerebroventricular (1 mmole/10 mL) 10 min before first trial of daily training
Method: Morris water maze: Morris water maze was performed in a circular pool (224 cm in diameter, 46 cm in height) located in a room with distinctive visual cues. Water was filled to a depth of 36 cm and a transparent plastic platform (25×25 cm, 32 cm in height) was located at the center of a fixed quadrant. Rats were trained for two days in the task environment: free-swimming in the pool without the transparent plastic platform. Each training session was 2 min and the rats were picked up from the pool by an experimenter. Then, rats received 4 consecutive daily training trials for the following six days. During each training trial, each rat was placed into the water randomly from one of the quadrants. The rat had to swim until it climbed onto the plastic platform submerged underneath the water. The time duration from being placed into the water to climbing onto the plastic platform was recorded and defined as escape latency. […] Each rat stayed on the platform for 60 s, which also served as the interval of trial. Compound 1 (1 mg/kg) or vehicle was daily injected to each rat 10 min before the first training trial. After the last training trial of each day, each rat was dried by a towel, and an electric heater was placed in its home cage.
Substantial evidence implicates the hippocampus in acquisition and retention of spatial information. See, e.g., Ohon et al. (1979) Behav. Brain Sci. 2: 316–365; and Barnes (1988) Trend Neurosci. 11: 163–169. The effect of Compound 1 on the acquisition of spatial memory in the Morris water maze was tested. Rats received 4 consecutive training trials every day. Compound 1 (1 mg/kg) was daily injected (i.p., 1 mg/kg) 10 min before the first trial of training. […] The escape latencies of 2˜4 trials were 93.8±8.7 s, 79.3±12/3 s and 57.6±12.5 s for a control group, and 50.4±10.2 s, 47.3±6.8 s and 30.3±10.3 for the Compound 1 group (n=10), respectively. The escape latencies of the first trial on the following 3 training days were also markedly shortened in the Compound 1 group. The escape latencies were 91.1±9.8 s, 47.1±3.9 s and 35.3±6.1 s for the control group, and 55.4±12.8 s, 15.3±2.1 s, and 13.4±1.7 s for the Compound 1 group (n=10), respectively. […] The escape latency is shorter in the Compound 1 group throughout the whole experimental period up to 21 days although Compound 1 was only administered […] for 4 days. The mean escape latency on the day-21 is 13.5±1.8 s and 6.0±0.5 s (n=10 each) for the control group and the Compound 1 group, respectively. From results shown above, Compound 1 is a promising drug for improving learning and memory. Compound 1 was mixed with 1.25% carboxymethylcellulose (CMC) and orally delivered to stomach (10 mg/kg) directly 30 min before the first trial for 6 successive days.
Since L-NAME antagonized Compound 1-induced LTP enhancement in hippocampal slices, in vivo experiments were performed to test the effect of L-NAME on the improved learning and memory provoked by Compound 1. In these experiments, rats chronically implanted with cannulae were injected intracerebroventrically with L-NAME (1 mmole/10 mL) or saline 10 min before the first trial of daily training, concomitant with i.p. injection of Compound 1 (1 mg/kg). […] Intracerebroventricular administration of KT 5823 also impaired the Compound 1-induced enhancement.

[2] = system: hippocampal slices taken from young rats; assay: Plasticity induced by low-frequency stimulation (LTD) in hippocampal slices; assay type: cell-based, Wistar rats; conditions: 0.02 Hz stimulation; alone
Method: After decapitation, brains of either adult ([…], for the induction of long-term potentiation) or young (2–3 weeks old, for the induction of long-term depression) Wistar rats were rapidly removed, and the hippocampus was dissected out. Transverse hippocampal slices (450 μm thickness) were immediately placed in an ice-cold cutting buffer containing 124 mM NaCl, 3 mM KCl, 1.0 mM Na2HPO4, 25 mM NaHCO3, 0.5 mM CaCl2, 5.0 mM MgSO4, 10 mM glucose, saturated with 95% O2 and 5% CO2. The slices were then maintained in an interface chamber at room temperature, and perfused at flow rate of 1–2 mL/min with artificial cerebrospinal fluid (ACSF). The composition of ACSF contained 124 mM NaCl, 4.4 mM KCl, 1.0 mM Na2HPO4, 25 mM NaHCO3, 2.0 mM or 2.5 mM CaCl2, 1.0 mM MgSO4, 10 mM glucose, gassed with 95% O2 and 5% CO2. The field Excitatory Postsynaptic Potentials (fEPSP) was evoked by test pulses through a bipolar stimulating electrode placed on the Schaffer collateral/commissural pathway, and recorded from the stratum radiatum of CA1 using a glass micropipette electrode (5–10 MΩ) filled with 2 M NaCl. The test pulse duration was 100 μsec, and test responses were elicited at 0.02 Hz. To record field potentials in the cortico-amygdala pathway, a stimulating electrode was placed in the external capsule, which contained fibers from the auditory cortex to the lateral amygdala. Bicuculine (10 μM) was present in the perfusion solution when the fEPSPs of amygdala were recorded. To increase the effectiveness of fused pyrazolyl compounds that were applied through the perfusion system, the ACSF level in the recording chamber was sufficiently high to cover the hippocampal slices but not to float them. All fused pyrazolyl compounds were perfused in ACSF.
Evoked fEPSPs were recorded and data were analyzed. The initial slope of the fEPSPs was calculated, and the data were expressed as percentages of the average of the base-line slope of the fEPSPs.
Compound 1 on plasticity induced by low-frequency stimulation (LFS): LFS (900 pulses at 1 Hz) was delivered to hippocampal slices taken from young rats ([…]) to induce long-term depression (LTD). Stimulation of hippocampal slices at 1 Hz for 3 min produced no LTD of synaptic transmission. However, this short-duration LFS induced significant LTD in the presence of Compound 1 (83.4±10.9%, n=3). […] A weaker electrical stimulation at 0.02 Hz was delivered in the presence of both nitric oxide donor nitroprusside ([…]) and Compound 1 (1.6 μM). Simultaneous perfusion of the nitric oxide donor nitroprusside (30 μM) and Compound 1 (1.6 μM) induced LTD.

| Molecule | fEPSP [1] | also measured |
| --- | --- | --- |
| CNCc1ccc(-c2nn(Cc3ccccc3)c3ccccc23)o1 [Compound 2] | 165.9% |  |
| OCc1ccc(-c2nn(Cc3ccccc3)c3cc(F)ccc23)o1 [Compound 3] | 218.9% |  |
| COCc1ccc(-c2nn(Cc3ccccc3)c3ccccc23)o1 [Compound 4] | 216.9% |  |
| COc1ccc2c(-c3ccc(CO)o3)nn(Cc3ccccc3)c2c1 [Compound 5] | 180.8% |  |
| OCc1ccc(-c2nn(Cc3ccccc3)c3cc4c(cc23)OCO4)o1 [Compound 6] | 260.3% |  |
| COC(=O)c1ccc(-c2nn(Cc3ccccc3)c3ccccc23)o1 [Compound 7] | 200.3% |  |
| COC(=O)c1ccc(-c2n[nH]c3ccccc23)o1 [Compound 8] | 180.6% |  |
| COC(=O)[C@@H](N)CCCNC(=N)N[N+](=O)[O-] [L-NAME, N^G-nitro-L-arginine-methylester, reference compound] |  | effect of L-NAME on the task (rats (spatial memory)): profound amnesia |
| nitroprusside [reference compound] |  | potentiation of fEPSP at 0.02 Hz stimulation, substance alone [2]: produced no potentiation |
